{"source": "patent EP4385326A1", "about": "“BIOPESTICIDE COMPOSITION AND METHOD FOR CONTROLLING AND TREATING BROAD SPECTRUM OF PESTS AND DISEASES IN PLANTS” (Kimitec Biogorup, priority 2022, dated 2024)", "key": {"Bemisia tabaci": {"tested_on": "Bemisia tabaci", "test": "Contact mortality (Leaf Disc Method)", "format": "in vivo", "conditions": "Table 4, application dose 3 cc/l (0.3%), Abbott's corrected"}, "[1]": {"tested_on": "Frankliniella occidentalis", "test": "Contact mortality (Leaf Disc Method)", "format": "in vivo", "conditions": "Table 4, application dose 3 cc/l (0.3%), Abbott's corrected"}, "Myzus persicae": {"tested_on": "Myzus persicae", "test": "Contact mortality (Leaf Disc Method)", "format": "in vivo", "conditions": "Table 4, application dose 3 cc/l (0.3%), Abbott's corrected"}, "Tetranychus urticae": {"tested_on": "Tetranychus urticae", "test": "Contact mortality (Leaf Disc Method)", "format": "in vivo", "conditions": "Table 5, application dose 3 cc/l (0.3%), Abbott's corrected"}, "Tuta absoluta": {"tested_on": "Tuta absoluta", "test": "Contact mortality (Leaf Disc Method)", "conditions": "Table 3; application dose 3 cc/l (0.3%); Abbott's corrected; 24 h"}, "[2]": {"conditions": "general property stated in the summary; cited from earlier work"}, "Spodoptera littoralis": {"tested_on": "Spodoptera littoralis", "test": "Contact mortality (Leaf Disc Method)", "conditions": "Table 3; application dose 3 cc/l (0.3%); Abbott's corrected; 24 h", "description": "Which is compared to individual solvent, using different solvents in order to extract active principles from vegetable matrix in the step b) claimed process and a third option that is evaporated the resulting solvent in the extraction process. Vegetable matrix is Carum carvi seed. Three kinds of treatments previously mentioned are: • Treatment A: Individual solvent • Treatment B: Plant extract without solvent. The solvent was removed by vacuum concentration and the composition was prepared using the crude extract in an aqueous solution in 2% Tween^Tm24. • Treatment C: Plant extract with different solvents.\nThe biopesticidal activity of the different treatments is tested in vitro against two lepidopteran pests: polyphagous Spodoptera littoralis and olyphagous Tuta absoluta. Aside from benzyl alcohol, solvents frequently used to formulate chemical products such as ethanol, isopropanol and water are used in the treatments. Table 3. In vitro trials against chewing lepidopteran pests\nThe objective of this bioassay is to evaluate the effect of test items on the mortality of adult insects and mites in a short/medium-term (0-24 hours) by topical application. Tests were conducted in plastic net bottles. A total of 10 replicates for each treatment (tests items and negative control) were used in each experiment and temporarily replicated 3 times along the week. (Figure 4)\nNumbers of live and dead adult insects and mites were counted at 24 h post-treatment. Adult insects and mites were considered dead if no movement was apparent after probing with the tip of a fine brush under stereoscopic magnifying glass. Mortality percentage was calculated in treatment and control groups. If the mortality in negative control is above 20% the test was discarded.\nMeans of %M were compared using a one-way analysis of variance (ANOVA, p<0.05) and LSD-test as a post hoc test to verify significant differences between single treatments using Statgraphics Centurion XVII software. When nonnormality in the data was detected, an additional Kruskal-Wallis test was conducted, and Box-and-Whisker Plot (Median Notch) was presented. • Antifeedant effects"}}, "note": "Marks after values point to notes of the source that are not given here."}
{"smiles": "OCc1ccccc1", "note": "[Benzyl alcohol (BnOH), Benzyl alcohol]", "values": [{"measurement": "Contact mortality (%M) Bemisia tabaci (adults)", "setting": "Bemisia tabaci", "value": "49.8 ± 6.2 ^cd %"}, {"measurement": "Contact mortality (%M) Frankliniella occidentalis (immature)", "setting": "[1]", "value": "12.5 ± 7.8 ^d %"}, {"measurement": "Contact mortality (%M) Myzus persicae (adults)", "setting": "Myzus persicae", "value": "19.8 ± 6.2 ^d %"}, {"measurement": "Contact mortality (%M) Tetranychus urticae (adults)", "setting": "Tetranychus urticae", "value": "33.4 ± 4.1 ^d %"}, {"measurement": "Contact mortality (%M) Tuta absoluta", "setting": "Tuta absoluta", "value": "29.6 ± 5.7 ^d %"}, {"measurement": "solubility in water", "setting": "[2]", "value": 4, "unit": "g/100 mL"}, {"measurement": "Contact mortality (%M) Spodoptera littoralis", "setting": "Spodoptera littoralis", "value": "17.4 ± 6.2 ^de %"}]}
{"smiles": "CCO", "note": "[Ethanol (EtOH), Ethanol]", "values": [{"measurement": "Contact mortality (%M) Bemisia tabaci (adults)", "setting": "Bemisia tabaci", "value": "23.5 ± 8.4 ^d %"}, {"measurement": "Contact mortality (%M) Frankliniella occidentalis (immature)", "setting": "[1]", "value": "0.0 ± 0.0 ^e %"}, {"measurement": "Contact mortality (%M) Myzus persicae (adults)", "setting": "Myzus persicae", "value": "16.7 ± 9.1 ^d %"}, {"measurement": "Contact mortality (%M) Tetranychus urticae (adults)", "setting": "Tetranychus urticae", "value": "0.0 ± 0.0 ^e %"}, {"measurement": "Contact mortality (%M) Tuta absoluta", "setting": "Tuta absoluta", "value": "0.0 ± 0.0 ^e %"}, {"measurement": "Contact mortality (%M) Spodoptera littoralis", "setting": "Spodoptera littoralis", "value": "0.0 ± 0.0 ^f %"}]}
{"smiles": "CC(C)O", "note": "[Isopropanol (IPN), Isopropanol]", "values": [{"measurement": "Contact mortality (%M) Bemisia tabaci (adults)", "setting": "Bemisia tabaci", "value": "0.0 ± 0.0 ^e %"}, {"measurement": "Contact mortality (%M) Frankliniella occidentalis (immature)", "setting": "[1]", "value": "0.0 ± 0.0 ^e %"}, {"measurement": "Contact mortality (%M) Myzus persicae (adults)", "setting": "Myzus persicae", "value": "0.0 ± 0.0 ^e %"}, {"measurement": "Contact mortality (%M) Tetranychus urticae (adults)", "setting": "Tetranychus urticae", "value": "0.0 ± 0.0 ^e %"}, {"measurement": "Contact mortality (%M) Tuta absoluta", "setting": "Tuta absoluta", "value": "11.4 ± 7.2 ^e %"}, {"measurement": "Contact mortality (%M) Spodoptera littoralis", "setting": "Spodoptera littoralis", "value": "4.2 ± 6.1 ^f %"}]}
{"smiles": "O", "note": "[Water]", "values": [{"measurement": "Contact mortality (%M) Bemisia tabaci (adults)", "setting": "Bemisia tabaci; 1440 min", "value": "0.0 ± 0.0 ^e %"}, {"measurement": "Contact mortality (%M) Frankliniella occidentalis (immature)", "setting": "[1]; 1440 min", "value": "0.0 ± 0.0 ^e %"}, {"measurement": "Contact mortality (%M) Myzus persicae (adults)", "setting": "Myzus persicae; 1440 min", "value": "0.0 ± 0.0 ^e %"}, {"measurement": "Contact mortality (%M) Tetranychus urticae (adults)", "setting": "Tetranychus urticae; 1440 min", "value": "0.0 ± 0.0 ^e %"}, {"measurement": "Contact mortality (%M) Tuta absoluta", "setting": "Tuta absoluta", "value": "0.0 ± 0.0 ^e %"}, {"measurement": "Contact mortality (%M) Spodoptera littoralis", "setting": "Spodoptera littoralis", "value": "0.0 ± 0.0 ^f %"}]}
